This passage reports EC50 results from patent US10214507B2, “Carbazole-containing amides, carbamates, and ureas as cryptochrome modulators” (Reset Therapeutics, Inc., priority 2014, dated 2019).

For the assay, the system named is stable U20S reporter cells harboring Per2-dLuc. Nature of the assay: Per2 assay for evaluating the potency of test compounds (circadian luciferase reporter). The assay is classed as cell-based. The settings on record: amplitude of Per2-dLuc luminescence vs log concentration. Put shortly:
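U2OS Per2-dLuc cells grown 48 h at 37 °C, then synchronized with 5 μM forskolin plus 1 mM luciferin and dosed with 3-fold compound dilutions.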

By EC50 is commonly meant the midpoint of the concentration-response curve.

Structures are written as SMILES.

`O=C1N(CC(O)Cn2c3ccc(F)cc3c3cc(F)ccc32)CCN1C1CCCC1` (centres unmarked) [Compound 91, 1-cyclopentyl-3-(3-(3,6-difluoro-9H-carbazol-9-yl)-2-hydroxypropyl)imidazolidin-2-one] had an EC50 of 0.621 µM.
Then `CC1CCC(=O)N1CC(O)Cn1c2ccc(F)cc2c2cc(F)ccc21` (centres unmarked) [Compound 34, 1-(3-(3,6-difluoro-9H-carbazol-9-yl)-2-hydroxypropyl)-5-methylpyrrolidin-2-one], with 0.286 µM; and `CC(O)(CN1CCC(F)(F)C1=O)Cn1c2ccc(F)cc2c2cc(F)ccc21` (centres unmarked) [Compound 59, 1-(3-(3,6-difluoro-9H-carbazol-9-yl)-2-hydroxy-2-methylpropyl)-3,3-difluoropyrrolidin-2-one], with 0.986 µM; and `C[C@@H]1CCN(C[C@H](O)Cn2c3ccccc3c3ccccc32)C1=O` [Compound 118, (R)-1-((R)-3-(9H-carbazol-9-yl)-2-hydroxypropyl)-3-methylpyrrolidin-2-one], with 0.12 µM.
Then `CC1CCCC(=O)N1CC(O)Cn1c2ccc(F)cc2c2cc(F)ccc21` (centres unmarked) [Compound 39, 1-(3-(3,6-difluoro-9H-carbazol-9-yl)-2-hydroxypropyl)-6-methylpiperidin-2-one], with 0.342 µM.
As for `O=C1N(CC(O)Cn2c3ccccc3c3ccccc32)CCCN1C1CCC1` (centres unmarked) [Compound 100, 1-(3-(9H-carbazol-9-yl)-2-hydroxypropyl)-3-cyclobutyltetrahydropyrimidin-2(1H)-one], the EC50 amounted to 0.721 µM.
In the case of `CC(O)(CN1CCCC(C2CCC2)C1=O)Cn1c2ccc(F)cc2c2cc(F)ccc21` (centres unmarked) [Compound 52, 3-cyclobutyl-1-(3-(3,6-difluoro-9H-carbazol-9-yl)-2-hydroxy-2-methylpropyl)piperidin-2-one] it was 1.35 µM; in that of `C[C@H]1CN(C[C@H](O)Cn2c3ccc(F)cc3c3cc(F)ccc32)C(=O)N1` [Compound 135, (S)-1-((R)-3-(3,6-difluoro-9H-carbazol-9-yl)-2-hydroxypropyl)-4-methylimidazolidin-2-one], 1.13 µM; in that of `CC(C)C1CCCN(CC(O)Cn2c3ccc(F)cc3c3cc(F)ccc32)C1=O` (centres unmarked) [Compound 25, 1-(3-(3,6-difluoro-9H-carbazol-9-yl)-2-hydroxypropyl)-3-isopropylpiperidin-2-one], 0.079 µM.
Then `CCN1CCCN(CC(C)(O)Cn2c3ccc(F)cc3c3cc(F)ccc32)C1=O` (centres unmarked) [Compound 87, 1-(3-(3,6-difluoro-9H-carbazol-9-yl)-2-hydroxy-2-methylpropyl)-3-ethyltetrahydropyrimidin-2(1H)-one], with 0.317 µM.
In the case of `C[C@](O)(CN1CC[C@@H](F)C1=O)Cn1c2ccccc2c2ccccc21` [Compound 127, (R)-1-((R)-3-(9H-carbazol-9-yl)-2-hydroxy-2-methylpropyl)-3-fluoropyrrolidin-2-one] it was 0.535 µM; in that of `C[C@@](O)(CN1CC[C@H](F)C1=O)Cn1c2ccc(F)cc2c2cc(F)ccc21` [Compound 125, (S)-1-((S)-3-(3,6-difluoro-9H-carbazol-9-yl)-2-hydroxy-2-methylpropyl)-3-fluoropyrrolidin-2-one], 0.451 µM; in that of `CC1CCCC(=O)N1CC(O)Cn1c2ccccc2c2ccccc21` (centres unmarked) [Compound 63, 1-(3-(9H-carbazol-9-yl)-2-hydroxypropyl)-6-methylpiperidin-2-one], 0.541 µM.
The molecule `O=C1[C@@H]2CC[C@@H](C2)N1C[C@H](O)Cn1c2ccccc2c2ccccc21` [Compound 106, (1S,4R)-2-((R)-3-(9H-carbazol-9-yl)-2-hydroxypropyl)-2-azabicyclo[2.2.1]heptan-3-one] returned an EC50 of 0.22 µM.
Then `O=C1NCCN1CC(O)Cn1c2ccccc2c2ccccc21` (centres unmarked) [Compound 84, 1-(3-(9H-carbazol-9-yl)-2-hydroxypropyl)imidazolidin-2-one], with 0.325 µM; and `O=C1CC(C2CC2)CN1CC(O)Cn1c2ccccc2c2ccccc21` (centres unmarked) [Compound 65, 1-(3-(9H-carbazol-9-yl)-2-hydroxypropyl)-4-cyclopropylpyrrolidin-2-one], with 1.03 µM; and `CCN1CCCN(CC(O)Cn2c3ccc(F)cc3c3cc(F)ccc32)C1=O` (centres unmarked) [Compound 86, 1-(3-(3,6-difluoro-9H-carbazol-9-yl)-2-hydroxypropyl)-3-ethyltetrahydropyrimidin-2(1H)-one], with 0.497 µM.
In the case of `CC(O)(CN1CCCC(C2CCCCC2)C1=O)Cn1c2ccc(F)cc2c2cc(F)ccc21` (centres unmarked) [Compound 21, 3-cyclohexyl-1-(3-(3,6-difluoro-9H-carbazol-9-yl)-2-hydroxy-2-methylpropyl)piperidin-2-one] it was 1.04 µM; in that of `O=C1N(CC(O)Cn2c3ccc(F)cc3c3cc(F)ccc32)CCN1C1CCCCC1` (centres unmarked) [Compound 88, 1-cyclohexyl-3-(3-(3,6-difluoro-9H-carbazol-9-yl)-2-hydroxypropyl)imidazolidin-2-one], 0.31 µM; in that of `CC1CCC(=O)N(CC(O)Cn2c3ccccc3c3ccccc32)C1` (centres unmarked) [Compound 62, 1-(3-(9H-carbazol-9-yl)-2-hydroxypropyl)-5-methylpiperidin-2-one], 0.37 µM.
Then `C[C@H]1CCC(=O)N(C[C@@H](O)Cn2c3ccccc3c3ccccc32)C1` [Compound 132, (S)-1-((S)-3-(9H-carbazol-9-yl)-2-hydroxypropyl)-5-methylpiperidin-2-one], with 1.13 µM; and `CC1(C)CC(=O)N(CC(O)Cn2c3ccc(F)cc3c3cc(F)ccc32)C1` (centres unmarked) [Compound 31, 1-(3-(3,6-difluoro-9H-carbazol-9-yl)-2-hydroxypropyl)-4,4-dimethylpyrrolidin-2-one], with 0.832 µM.
Regarding `O=C1[C@H]2CC[C@H](C2)N1C[C@H](O)Cn1c2ccc(F)cc2c2cc(F)ccc21` [Compound 105, (1R,4S)-2-((R)-3-(3,6-difluoro-9H-carbazol-9-yl)-2-hydroxypropyl)-2-azabicyclo[2.2.1]heptan-3-one], the response was half-maximal at 0.054 µM (EC50).
Then `C[C@@H]1CCC(=O)N(C[C@@H](O)Cn2c3ccccc3c3ccccc32)C1` [Compound 133, (R)-1-((S)-3-(9H-carbazol-9-yl)-2-hydroxypropyl)-5-methylpiperidin-2-one], with 0.838 µM; and `C[C@@](O)(CN1CC[C@@H](F)C1=O)Cn1c2ccc(F)cc2c2cc(F)ccc21` [Compound 126, (R)-1-((S)-3-(3,6-difluoro-9H-carbazol-9-yl)-2-hydroxy-2-methylpropyl)-3-fluoropyrrolidin-2-one], with 0.958 µM; and `C[C@](O)(CN1CC[C@H](F)C1=O)Cn1c2ccccc2c2ccccc21` [Compound 128, (S)-1-((R)-3-(9H-carbazol-9-yl)-2-hydroxy-2-methylpropyl)-3-fluoropyrrolidin-2-one], with 0.172 µM.
Then `CC1CCN(CC(C)(O)Cn2c3ccc(F)cc3c3cc(F)ccc32)C(=O)C1` (centres unmarked) [Compound 36, 1-(3-(3,6-difluoro-9H-carbazol-9-yl)-2-hydroxy-2-methylpropyl)-4-methylpiperidin-2-one], with 0.76 µM; and `O=C1N(CC(O)Cn2c3ccccc3c3ccccc32)CCN1C1CC1` (centres unmarked) [Compound 97, 1-(3-(9H-carbazol-9-yl)-2-hydroxypropyl)-3-cyclopropylimidazolidin-2-one], with 0.315 µM.
Then `CC(O)(CN1CCCC(F)(F)C1=O)Cn1c2ccc(F)cc2c2cc(F)ccc21` (centres unmarked) [Compound 14, 1-(3-(3,6-difluoro-9H-carbazol-9-yl)-2-hydroxy-2-methylpropyl)-3,3-difluoropiperidin-2-one], with 0.541 µM.
